Assay results: ChEMBL document CHEMBL1142969, “Venturamides A and B: antimalarial constituents of the panamanian marine Cyanobacterium Oscillatoria sp” (J Nat Prod, 2007)

Columns and labels:
MCF7 = assay: Growth inhibition of MCF7 cells; type: functional, cell-based; conditions: Homo sapiens
Leishmania donovani = assay: Growth inhibition of Leishmania donovani MHOM/SD/00-1S after 72 hrs by amastigote assay; type: functional, organism-based
Vero = assay: Cytotoxicity against Vero cells after 72 hrs; type: cell-based; conditions: Chlorocebus sabaeus
Trypanosoma cruzi = assay: Growth inhibition of Trypanosoma cruzi recombinant Tulahuen C4; type: functional, organism-based
Plasmodium falciparum = assay: Antiplasmodial activity against chloroquine-resistant Plasmodium falciparum W2 Indochina; type: functional, organism-based

SMILES	IC50 (MCF7) [µM]	IC50 (Leishmania donovani) [µM]	IC50 (Vero) [µM]	IC50 (Trypanosoma cruzi) [µM]	IC50 (Plasmodium falciparum) [µM]
Cc1oc2nc1C(=O)N[C@H](C)c1nc(cs1)C(=O)N[C@H](C(C)C)c1nc(cs1)C(=O)N[C@@H]2C [VENTURAMIDE A]	13.1	> 20	86	14.6	8.2
Cc1oc2nc1C(=O)N[C@H]([C@@H](C)O)c1nc(cs1)C(=O)N[C@H](C(C)C)c1nc(cs1)C(=O)N[C@@H]2C [VENTURAMIDE B]	> 54	> 19	56	15.8	5.2
